According to US4511573A, “3-Substituted-2-(heteroaryl) indoles” (Ciba-Geigy Corporation, priority 1983, dated 1985):
Blank lines part the entries; values can stand above or below the compound they belong to.

Experiments:
[1] = biological target: T1, prostacyclin (PGI2) synthetase (Bos taurus, UniProt Q29626); test: in vitro effect on prostacyclin (PGI2) synthetase (6-keto-PGF1α/PGE2 ratio); format: biochemical, bovine; conditions: pH 7.5, 30 minutes at 37° C., read-out: IC50 for inhibition of prostacyclin synthetase
T1 construct: crude PGI2 synthetase in the form of a microsomal fraction of bovine aorta; from tissue; host or cells: bovine aorta (microsomal fraction)
T1 sequence (Q29626 1-500): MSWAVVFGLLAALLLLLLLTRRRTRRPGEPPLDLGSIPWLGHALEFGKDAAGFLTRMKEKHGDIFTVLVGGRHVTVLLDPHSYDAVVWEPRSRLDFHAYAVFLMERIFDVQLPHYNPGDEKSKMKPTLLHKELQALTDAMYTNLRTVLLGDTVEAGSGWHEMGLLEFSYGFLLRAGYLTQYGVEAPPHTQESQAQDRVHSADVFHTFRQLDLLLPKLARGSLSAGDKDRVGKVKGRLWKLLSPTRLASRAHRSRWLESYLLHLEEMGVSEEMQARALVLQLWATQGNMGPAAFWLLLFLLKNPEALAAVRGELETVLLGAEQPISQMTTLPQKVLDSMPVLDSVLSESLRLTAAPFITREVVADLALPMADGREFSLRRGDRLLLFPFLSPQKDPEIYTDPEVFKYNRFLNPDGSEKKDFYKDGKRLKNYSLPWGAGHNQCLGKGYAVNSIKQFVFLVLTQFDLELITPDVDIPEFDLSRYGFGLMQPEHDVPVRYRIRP
Description: The in-vitro effect on prostacyclin (PGI2) synthetase is measured analogous to the method of Sun et al., Prostaglandins 14, 1055 (1977);
The testing procedure is as follows:
^14 C-Arachiodonic acid is incubated with an enzyme mixture consisting of solubilized and partially purified prostaglandin cyclo-oxygenase from sheep seminal vesicles and crude PGI2 synthetase in the form of a microsomal fraction of bovine aorta.
Test compound (dissolved in buffer, or if necessary, in a small amount of ethanol) is placed in the incubation medium. The reaction mixture is incubated in 100 mM Tris HCl (pH 7.5) for 30 minutes at 37° C., acidified to pH 3 and extracted into ethyl acetate. The extract is evaporated to dryness; the residue is dissolved in acetone, spotted on thin-layer plates and chromatographed in a solvent system described by Sun et al.. The radioactive zones are located with a scanner; those corresponding to 6-keto-PGF1 α(a stable end product of prostacyclin biotransformation) and PGE2 are transferred to liquid scintillation vials and counted. The ratio of counts for 6-keto-PGF1 α/PGE2 is calculated for each concentration of test compound used. IC50 values for inhibition are determined graphically as the concentration of test compound at which the ratio of 6-keto-PGF1 α/PGE2 is reduced to 50% of the control value.

thromboxane synthetase = biological target: T2, thromboxane synthetase (Homo sapiens, UniProt P24557); test: in vitro inhibition of thromboxane synthetase (14C-arachidonic acid, TxB2/PGF2α+β ratio); format: biochemical; conditions: 30 minutes incubation
T2 construct: crude microsomal preparation of thromboxane synthetase from lysed human platelets; from tissue; host or cells: human platelets (lysed, crude microsomal preparation)
T2 sequence (P24557 1-533): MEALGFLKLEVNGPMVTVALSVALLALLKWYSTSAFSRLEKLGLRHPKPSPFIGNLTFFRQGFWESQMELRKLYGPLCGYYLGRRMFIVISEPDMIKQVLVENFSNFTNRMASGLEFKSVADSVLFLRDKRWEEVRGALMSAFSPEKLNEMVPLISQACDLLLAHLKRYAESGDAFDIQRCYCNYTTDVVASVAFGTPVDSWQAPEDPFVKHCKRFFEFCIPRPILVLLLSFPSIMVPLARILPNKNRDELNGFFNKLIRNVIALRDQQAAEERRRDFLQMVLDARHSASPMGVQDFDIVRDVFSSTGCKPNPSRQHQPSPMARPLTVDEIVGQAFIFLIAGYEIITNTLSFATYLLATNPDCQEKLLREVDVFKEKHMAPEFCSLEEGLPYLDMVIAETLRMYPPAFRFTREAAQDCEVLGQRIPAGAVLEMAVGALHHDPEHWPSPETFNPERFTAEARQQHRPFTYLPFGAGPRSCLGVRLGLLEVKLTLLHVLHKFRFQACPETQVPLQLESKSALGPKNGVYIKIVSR
Description: Res. Comm. 74, 1432 (1977); the testing procedure is as follows:
^14 C-Arachiodonic acid is incubated with an exzyme consisting of solubilized and partially purified prostaglandin cyclo-oxygenase from sheep seminal vesicles and a crude microsomal preparation of thromboxane synthetase from lysed human platelets. The test compound (dissolved in buffer, or if necessary, in a small amount of ethanol) is added to the incubation medium. At the end of the incubation period (30 minutes), Prostaglandin E2 (PGE2) is reduced to a mixture of Prostaglandin F2 α and F2 β (PGF2α+β) by addition of sodium borohydride. The radioactive products and excess substrate are extracted into ethyl acetate; the extract is evaporated to dryness; the residue is dissolved in acetone, spotted on thin-layer plates and chromatographed in the solvent system toluene: acetone: glacial acetic acid (100 volumes: 100 volumes: 3 volumes). The radioactive zones are located; those corresponding to Thromboxane B2 (TxB2) and PGF2 α+β are transferred to liquid scintillation vials and counted. The ratio of counts for TxB2 /PGF2 α+β is calculated for each concentration of test compound and IC50 values are determined graphically as the concentration of test compound at which the ratio of T×B2 /[…] is reduced to 50% of the control value.

thrombocytopenia = test: inhibition of variously induced thrombocytopenia; conditions: in vivo
platelet aggregation = test: inhibition of variously induced platelet aggregation; format: cell-based
[2] = biological target: T3, prostaglandin cyclooxygenase (Ovis aries, UniProt P05979); test: in vitro effect on prostaglandin cyclooxygenase (14C-arachidonic acid to PGE2); format: biochemical, sheep; conditions: read-out: IC50 for inhibition of cyclooxygenase
T3 construct: Lyophilized sheep seminal vesicle microsomes are utilized as the prostaglandin-synthesizing enzyme preparation; from tissue; host or cells: sheep seminal vesicle microsomes (lyophilized)
T3 sequence (P05979 25-600): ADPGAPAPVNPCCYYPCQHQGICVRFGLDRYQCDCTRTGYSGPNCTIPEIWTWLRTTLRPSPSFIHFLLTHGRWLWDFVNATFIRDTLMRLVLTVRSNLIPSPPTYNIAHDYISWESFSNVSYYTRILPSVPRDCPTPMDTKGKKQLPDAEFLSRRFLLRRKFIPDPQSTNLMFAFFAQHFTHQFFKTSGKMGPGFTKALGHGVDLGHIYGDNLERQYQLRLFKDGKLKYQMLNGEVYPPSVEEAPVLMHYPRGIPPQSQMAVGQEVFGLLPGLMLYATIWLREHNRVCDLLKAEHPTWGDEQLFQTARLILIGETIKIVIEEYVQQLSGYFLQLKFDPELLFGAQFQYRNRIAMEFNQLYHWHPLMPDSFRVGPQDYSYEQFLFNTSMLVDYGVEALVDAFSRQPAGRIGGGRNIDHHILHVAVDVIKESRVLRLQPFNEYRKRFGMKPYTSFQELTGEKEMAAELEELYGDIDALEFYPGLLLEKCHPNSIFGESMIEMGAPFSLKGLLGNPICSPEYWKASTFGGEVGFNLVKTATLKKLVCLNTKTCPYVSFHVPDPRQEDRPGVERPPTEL
Description: The in-vitro effect on prostaglandin cyclooxygenase is measured by a modification of the method of Takeguchi et al. described in Biochemistry 10, 2372 (1971); the testing procedure is as follows: Lyophilized sheep seminal vesicle microsomes are utilized as the prostaglandin-synthesizing enzyme preparation. The conversion of ^14 C-arachidonic acid to PGE2 is measured. Test compounds (dissolved in buffer, or if necessary, in a small amount of ethanol) are added to the incubation mixture. The prostaglandins are extracted and separated by thin-layer chromatography; the plates are scanned, the radioactive zones corresponding to PGE2 are transferred to liquid scintillation vials and counted for radioactivity. IC50 values for inhibition are determined graphically as the concentration of test compound causing a 50% reduction in the amount of PGE2 synthesized.

bleeding time = test: prolongation of bleeding time in the rat; format: in vivo; conditions: oral, about 10 mg/kg
From the text: Experimentally, prolongation of bleeding time in the rat is indicative of a beneficial antithrombotic effect.

thromboxane B2 = test: reduction of plasma levels of thromboxane in vivo in rats (ionophore A23187, radioimmunoassay of thromboxane B2); conditions: rat, oral dose 0.10 mg/kg
Description: (§1) The inhibition of the synthesis and the reduction of plasma levels of thromboxane is determined in vivo on administration to rats in the following manner (as adapted from the procedures described by Tai et al. in Anal. Biochem. 87:343, 1978 and by Salmon in Prostaglandins 15:383, 1978):
(§2) Rats are dosed with vehicle or test drug and injected intravenously with ionophore A23187 (0.5 mg/kg) two hours later. Blood is collected for analysis 2 minutes after the inonophore injection. A single aliquot of each plasma sample is assayed for thromboxane B2 and another aliquot for 6-keto-PGF1 α, the stable metabolites of thromboxane A2 and prostacyclin (PGI2) respectively, by radioimmunoassay.

prostacyclin = test: plasma level of prostacyclin in vivo in rats (ionophore A23187, radioimmunoassay of 6-keto-PGF1α); conditions: rat, oral dose 0.10 mg/kg
Description: as §1, §2

IC50 [1]: ~100 µM | IC50 (thromboxane synthetase): 2.2 nM | IC50 [2]: ~100 µM
Structure (SMILES): Cn1c(-c2cccnc2)c(CCCCCC(=O)O)c2ccccc21 [3-(5-carboxypentyl)-1-methyl-2-(3-pyridyl)indole]
inhibition of variously induced thrombocytopenia (thrombocytopenia): inhibits | inhibition of variously induced platelet aggregation (platelet aggregation): inhibits

IC50 (thromboxane synthetase): ~1.7 nM
Structure (SMILES): O=C(O)CCCCCc1c(-c2cccnc2)[nH]c2ccccc12 [3-(5-carboxypentyl)-2-(3-pyridyl)indole]
prolongation of bleeding time (bleeding time): prolongs bleeding time

Structure (SMILES): Cn1c(-c2cccnc2)c(CCCCCC(=O)O)c2cc(Cl)ccc21 [3-(5-carboxypentyl)-5-chloro-1-methyl-2-(3-pyridyl)indole]
decrease of plasma concentration of thromboxane B2 (thromboxane B2): over 50% | increase in the plasma level of prostacyclin (prostacyclin): approximately 8 fold

IC50 (thromboxane synthetase): ~2 nM
Structure (SMILES): O=C(O)CCCCCc1c(-c2cccnc2)[nH]c2ccc(Cl)cc12 [3-(5-carboxypentyl)-5-chloro-2-(3-pyridyl)indole]
